We go through 14 molecules from US12281122B1, “PI3K inhibitors” (Cogent Biosciences, Inc., priority 2023, dated 2025).

In general, IC50 refers to the midpoint of a concentration-inhibition curve. Lower therefore signals inhibition by little substance.

The test system of experiment [1] is T47D (PI3Kα-H1047R) cell line. Kind of experiment: HTRF phospho-AKT(S473) cell assay in T47D cells. In kind it is cell-based, human. The procedure, abridged:
(§1)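 HTRF read-out of phospho-AKT(S473) in lysates gave IC50 values after 2 h compound exposure at 37° C. Dose series was 12 points at 1:3, topping at 5 μM for T47D and 10 μM for SKBR3. Only SKBR3 received 70 ng/ml PDGF-BB during the last 15 minutes.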
For orientation: TR-FRET usually uses a lanthanide donor and a delayed reading to cut background.

For experiment [2], the system named is SKBR3 (PI3Kα-Wild Type) cell line. Description: HTRF phospho-AKT(S473) cell assay in SKBR3 cells. In kind it is cell-based, human. The procedure, abridged: as §1
[3] abbreviates: Homo sapiens; HTRF phospho-AKT(S473), T47D (PI3Kα-H1047R) cells, 2 hours compound incubation.
Where [4] appears, read: Homo sapiens, SK-BR-3; HTRF phospho-AKT(S473), SKBR3 (PI3Kα-Wild Type) cells, 2 hours compound incubation, PDGF-BB stimulated.
Setting [5] is: Homo sapiens; T47D (PI3Kα-H1047R) cells, HTRF phospho-AKT(S473), 2 hours compound incubation.
The mark [6] stands for this setting: Homo sapiens, SK-BR-3; SKBR3 (PI3Kα-Wild Type) cells, HTRF phospho-AKT(S473), 2 hours compound incubation, PDGF-BB stimulated.

Turning to `COc1cc([C@H]2[C@@H]3CN(c4nc5c([C@@H](C)Nc6ccc(Cl)nc6C(=O)NS(C)(=O)=O)cc(C)cc5c(=O)n4C)C[C@@H]32)nn1C` [Compound 542, 6-chloro-3-(((R)-1-(2-((1R,5S,6R)-6-(5-methoxy-1-methyl-1H-pyrazol-3-yl)-3-azabicyclo[3.1.0]hexan-3-yl)-3,6-dimethyl-4-oxo-3,4-dihydroquinazolin-8-yl)ethyl)amino)-N-(methylsulfonyl) picolinamide], the IC50 in experiment [1] (setting [3]) is 250 to 500 nM; in experiment [2] (setting [4]), at least 5000 nM.

As for `Cc1cc([C@@H](C)Nc2ccc(Cl)nc2C(=O)NS(C)(=O)=O)c2nc(-c3cnc(N4CCOCC4)nc3)n(C)c(=O)c2c1` [Compound 814, (R)-6-chloro-3-((1-(3,6-dimethyl-2-(2-morpholinopyrimidin-5-yl)-4-oxo-3,4-dihydroquinazolin-8-yl)ethyl)amino)-N-(methylsulfonyl) picolinamide], the values for the IC50 in experiment [1] (setting [3]) and in experiment [2] (setting [4]) were below 250 nM and 1000 to 5000 nM, respectively.

In the case of `[2H]C([2H])([2H])n1ccc([C@H]2[C@@H]3CN(c4nc5c([C@@H](C)Nc6ccc(Cl)nc6C(=O)NS(C)(=O)=O)cc(C)cc5c(=O)n4C4CC4)C[C@@H]32)n1` [Compound 734, 6-chloro-3-(((R)-1-(3-cyclopropyl-6-methyl-2-((1R,5S,6R)-6-(1-(methyl-d3)-1H-pyrazol-3-yl)-3-azabicyclo[3.1.0]hexan-3-yl)-4-oxo-3,4-dihydroquinazolin-8-yl)ethyl)amino)-N-(methylsulfonyl) picolinamide], the values for the IC50 in experiment [1] (setting [3]) and in experiment [2] (setting [4]) were 250 to 500 nM and 1000 to 5000 nM, respectively.

Turning to `Cc1cc([C@@H](C)Nc2ccc(Cl)nc2C(=O)NS(C)(=O)=O)c2nc(N3C[C@@H]4C[C@H]3CN4c3ncc(F)cn3)n(C)c(=O)c2c1` [Compound 669, 6-chloro-3-(((R)-1-(2-((1S,4S)-5-(5-fluoropyrimidin-2-yl)-2,5-diazabicyclo [2.2.1]heptan-2-yl)-3,6-dimethyl-4-oxo-3,4-dihydroquinazolin-8-yl)ethyl)amino)-N-(methylsulfonyl) picolinamide], the figures for the IC50 in experiment [1] (setting [3]) and in experiment [2] (setting [4]) were 250 to 500 nM and at least 5000 nM, respectively.

Turning to `Cc1cc([C@@H](C)Nc2ccc(Cl)nc2C(=O)NS(C)(=O)=O)c2nc(N3CCC(n4ccccc4=O)CC3)n(C)c(=O)c2c1` [Compound 677, (R)-6-chloro-3-((1-(3,6-dimethyl-4-oxo-2-(4-(2-oxopyridin-1(2H)-yl)piperidin-1-yl)-3,4-dihydroquinazolin-8-yl)ethyl)amino)-N-(methylsulfonyl) picolinamide], the results for the IC50 in experiment [1] (setting [3]) and in experiment [2] (setting [4]) were 250 to 500 nM and at least 5000 nM, respectively.

Take `Cc1cc([C@@H](C)Nc2ccc(Cl)nc2C(=O)NS(C)(=O)=O)c2nc(N3CCC(Oc4ccccn4)CC3)n(C)c(=O)c2c1` [Compound 694, (R)-6-chloro-3-((1-(3,6-dimethyl-4-oxo-2-(4-(pyridin-2-yloxy)piperidin-1-yl)-3,4-dihydroquinazolin-8-yl)ethyl)amino)-N-(methylsulfonyl) picolinamide]: the IC50 in experiment [1] (setting [3]) was 250 to 500 nM; in experiment [2] (setting [4]) it was at least 5000 nM.

Regarding `Cc1cc([C@@H](C)Nc2ccc(Cl)nc2C(=O)NS(C)(=O)=O)c2nc(N3CC[C@H](Oc4cnc(C)cn4)C3)n(C)c(=O)c2c1` [Compound 631, 6-chloro-3-(((R)-1-(3,6-dimethyl-2-((S)-3-((5-methylpyrazin-2-yl)oxy)pyrrolidin-1-yl)-4-oxo-3,4-dihydroquinazolin-8-yl)ethyl)amino)-N-(methylsulfonyl) picolinamide], the IC50 in experiment [1] (setting [3]) is below 250 nM; in experiment [2] (setting [4]), 1000 to 5000 nM.

For the molecule `Cc1cc([C@@H](C)Nc2ccc(Cl)nc2C(=O)NS(C)(=O)=O)c2nc(-c3ccc4c(c3)ncn4C)n(C)c(=O)c2c1` [Compound 833, (R)-6-chloro-3-((1-(3,6-dimethyl-2-(1-methyl-1H-benzo[d]imidazol-5-yl)-4-oxo-3,4-dihydroquinazolin-8-yl)ethyl)amino)-N-(methylsulfonyl) picolinamide], the IC50 in experiment [1] (setting [3]) lay within 250 to 500 nM; in experiment [2] (setting [4]), 1000 to 5000 nM.

Take `Cc1cc([C@@H](C)Nc2ccc(Cl)nc2C(=O)NS(C)(=O)=O)c2nc(N3C[C@H]4C[C@@H](c5ccn(C)n5)[C@@H]3C4)n(C)c(=O)c2c1` [Compound 315, 6-chloro-3-(((R)-1-(3,6-dimethyl-2-((1S,4S,6R)-6-(1-methyl-1H-pyrazol-3-yl)-2-azabicyclo[2.2.1]heptan-2-yl)-4-oxo-3,4-dihydroquinazolin-8-yl)ethyl)amino)-N-(methylsulfonyl) picolinamide]: the IC50 in experiment [1] (setting [5]) was below 250 nM; in experiment [2] (setting [6]), at least 5000 nM.

As for `Cc1cc([C@@H](C)Nc2ccc(Cl)nc2C(=O)NS(C)(=O)=O)c2nc([C@H]3CCCN(c4nccc(C)n4)C3)n(C)c(=O)c2c1` (mixture of isomers) [Compound 756, 6-chloro-3-(((R)-1-(3,6-dimethyl-2-((RS)-1-(4-methylpyrimidin-2-yl)piperidin-3-yl)-4-oxo-3,4-dihydroquinazolin-8-yl)ethyl)amino)-N-(methylsulfonyl) picolinamide], the results for the IC50 in experiment [1] (setting [3]) and in experiment [2] (setting [4]) were 500 to 1000 nM and at least 5000 nM, respectively.

Take `CO[C@H]1C[C@H](S(=O)(=O)NC(=O)c2nc(Cl)ccc2N[C@H](C)c2cc(C)cc3c(=O)n(C)c(N4Cc5ccc(F)cc5C4)nc23)C1` [Compound 379, 6-chloro-3-(((R)-1-(2-(5-fluoroisoindolin-2-yl)-3,6-dimethyl-4-oxo-3,4-dihydroquinazolin-8-yl)ethyl)amino)-N-(((1r,3R)-3-methoxycyclobutyl)sulfonyl)picolinamide]: the IC50 was 250 to 500 nM in experiment [1] (setting [5]) and at least 5000 nM in experiment [2] (setting [6]).

For `Cc1cc([C@@H](C)Nc2ccc(Cl)nc2C(=O)NS(C)(=O)=O)c2nc(N3C[C@@H]4CC4(c4cnc(C)nc4)C3)n(C)c(=O)c2c1` (relative stereo) [Compound 752, 6-chloro-3-(((R)-1-(3,6-dimethyl-2-((1R*,5R*)-1-(2-methylpyrimidin-5-yl)-3-azabicyclo[3.1.0]hexan-3-yl)-4-oxo-3,4-dihydroquinazolin-8-yl)ethyl)amino)-N-(methylsulfonyl) picolinamide], the IC50 in experiment [1] (setting [3]) was 500 to 1000 nM; in experiment [2] (setting [4]), at least 5000 nM.

Turning to `Cc1cc([C@@H](C)Nc2ccc(Cl)nc2C(=O)NS(C)(=O)=O)c2nc(N3C[C@@H]4[C@H](C3)[C@H]4c3cnc(C)cn3)n(C)c(=O)c2c1` [Compound 394, 6-chloro-3-(((R)-1-(3,6-dimethyl-2-((1R,5S,6R)-6-(5-methylpyrazin-2-yl)-3-azabicyclo[3.1.0]hexan-3-yl)-4-oxo-3,4-dihydroquinazolin-8-yl)ethyl)amino)-N-(methylsulfonyl) picolinamide], the IC50 in experiment [1] (setting [5]) is below 250 nM; in experiment [2] (setting [6]), 1000 to 5000 nM.

As for `Cc1cc([C@@H](C)Nc2ccc(Cl)nc2C(=O)NS(C)(=O)=O)c2nc(N3C[C@@H]4[C@H](C3)[C@H]4c3nn(C4CC4)cc3F)n(C)c(=O)c2c1` [Compound 569, 6-chloro-3-(((R)-1-(2-((1R,5S,6R)-6-(1-cyclopropyl-4-fluoro-1H-pyrazol-3-yl)-3-azabicyclo[3.1.0]hexan-3-yl)-3,6-dimethyl-4-oxo-3,4-dihydroquinazolin-8-yl)ethyl)amino)-N-(methylsulfonyl) picolinamide], the IC50 in experiment [1] (setting [3]) is 250 to 500 nM; in experiment [2] (setting [4]), at least 5000 nM.
